For the experiment, the target named is T1, Beta-1,4-galactosyltransferase 1 (Bos taurus, UniProt P08037).
T1 sequence (P08037 whole entry): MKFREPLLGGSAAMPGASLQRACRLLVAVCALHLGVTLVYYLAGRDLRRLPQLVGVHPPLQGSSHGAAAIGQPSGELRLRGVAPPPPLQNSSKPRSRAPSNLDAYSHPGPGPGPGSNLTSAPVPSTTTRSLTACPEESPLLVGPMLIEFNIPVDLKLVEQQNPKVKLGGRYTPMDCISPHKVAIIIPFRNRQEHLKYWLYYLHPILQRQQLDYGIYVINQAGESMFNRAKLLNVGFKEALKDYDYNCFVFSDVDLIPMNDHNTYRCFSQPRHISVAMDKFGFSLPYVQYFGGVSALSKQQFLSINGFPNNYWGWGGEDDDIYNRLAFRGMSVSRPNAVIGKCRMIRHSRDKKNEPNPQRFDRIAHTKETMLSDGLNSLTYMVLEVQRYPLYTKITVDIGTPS
Description: Inhibition constant of compound was tested against Beta-galactosyltransferase from bovine milk.

`O=P(O)(O)CC1=CC(O)C(O)C(CO)O1` (stereo not given): the Ki is 1430 µM.
In turn, `O=c1ccn(C2O[C@H](COP(=O)(O)OP(=O)(O)C3OC(O)C(O)C(O)C3O)[C@@H](O)[C@H]2O)c(=O)[nH]1` (stereo not given in full) had a Ki of 165 µM.
For `O=c1ccn(C2O[C@H](COP(=O)(O)CP(=O)(O)OC3OC(O)C(O)C(O)C3O)[C@@H](O)[C@H]2O)c(=O)[nH]1` (stereo not given in full), the Ki came to 96.9 µM.
Consider `O=c1ccn(C2O[C@H](COP(=O)(O)OP(=O)(O)CC3=CC(O)C(O)C(CO)O3)[C@@H](O)[C@H]2O)c(=O)[nH]1` (stereo not given in full), for which the Ki came out at 62 µM.
Compound `O=c1ccn([C@@H]2O[C@H](COP(=O)(O)OP(=O)(O)OP(=O)(O)O)[C@@H](O)[C@H]2O)c(=O)[nH]1` [URIDINE TRIPHOSPHATE] showed a Ki of 128 µM.

Broadly, the Ki is a dissociation constant, usually derived from enzyme kinetics or from competition with a known ligand. Read a low Ki as higher affinity.

For the origin of these results see ChEMBL document CHEMBL1150445, “A new galactosyl transferase inhibitor” (Bioorg Med Chem Lett, 1993).
